Measurements taken from patent US20060069132A1, “Azolecarboxamide herbicides” (priority 2004, published 2006).

Columns and labels:
velvetleaf [1] = assay: Test B pre-/postemergence herbicide test; format: in vivo, Abutilon theophrasti; conditions: for Velvetleaf plant response rating: postemergence, scale 0 (no effect) to 100 (complete control)
Outline: (§1)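 Pre: seeds sown, then sprayed. Post: 1–4-leaf plants (2–18 cm) sprayed at the same time. Paddy: flooded, treated at 2-leaf stage. Formulation: non-phytotoxic solvent with surfactant. Greenhouse 13–15 days; visual 0–100 score relative to controls.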

giant foxtail [2] = assay: Test A pre-/postemergence herbicide test; format: in vivo, Setaria faberi
Outline: (§2)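 Plants are held in greenhouse about ten days after treatment, then compared with untreated controls and scored 0 (no effect) to 100 (complete control). Preemergence dosing is a directed soil spray on sown sandy loam; postemergence dosing is spray to runoff at 2–10 cm height.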

wild oat = assay: Test B postemergence herbicide test; format: in vivo, Avena fatua; conditions: postemergence, visual rating, scale 0 (no effect) to 100 (complete control)
Outline: (§3)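 Treated at 2-leaf (paddy) or 1–4-leaf, 2–18 cm (postemergence); greenhouse 13–15 d; visual score vs control, 0 none to 100 complete control; dash = not tested.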

large crabgrass [3] = assay: Test B pre-/postemergence herbicide test; format: in vivo, Digitaria sanguinalis; conditions: for Crabgrass, Large plant response rating: postemergence, scale 0 (no effect) to 100 (complete control)
Outline: as §1

[4] = system: small flower umbrella sedge; assay: Test B flooded paddy test; format: in vivo, Cyperus difformis; conditions: 1000 g ai/ha, visual rating, scale 0 to 100 (0 no effect, 100 complete control), 13 to 15 days
Outline: (§4)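 After treating 2-leaf paddy plants or 2–18 cm postemergence plants (1 to 4 leaves) with formulated chemical, researchers kept them in a greenhouse for 13–15 days. Effects were judged visually versus controls: 0 indicates none, 100 total control.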

blackgrass = assay: Test B postemergence herbicide test; format: in vivo, Alopecurus myosuroides; conditions: postemergence, visual rating, scale 0 (no effect) to 100 (complete control)
Outline: as §4

ducksalad = assay: Test B flooded paddy test; format: in vivo, Heteranthera limosa; conditions: 1000 g ai/ha, visual rating, scale 0 to 100 (0 no effect, 100 complete control), 13 to 15 days
Outline: as §4

large crabgrass [5] = assay: Test A pre-/postemergence herbicide test; format: in vivo, Digitaria sanguinalis
Outline: as §2

redroot pigweed = assay: Test A pre-/postemergence herbicide test; format: in vivo, Amaranthus retroflexus
Outline: as §2

cocklebur = assay: Test B pre-/postemergence herbicide test; format: in vivo, Xanthium strumarium; conditions: for Cocklebur plant response rating: postemergence, scale 0 (no effect) to 100 (complete control)
Outline: (§5)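 Flooded paddy rice and barnyardgrass were treated at the 2-leaf stage; upland plantings received compound either on sown seed or on 1- to 4-leaf seedlings. All were kept 13–15 days in a greenhouse and scored visually, 0–100, relative to untreated plants.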

barnyardgrass [6] = assay: Test A pre-/postemergence herbicide test; format: in vivo, Echinochloa crus-galli
Outline: as §2

rice [7] = assay: Test B flooded paddy test; format: in vivo, Oryza sativa; conditions: 1000 g ai/ha, visual rating, scale 0 to 100 (0 no effect, 100 complete control), 13 to 15 days
Outline: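 Plants grow to 1- to 4-leaf stage (2–18 cm) for postemergence spraying, or to 2-leaf stage for the paddy test. Formulated compound is applied. Greenhouse holding lasts 13–15 days. Response is scored visually relative to controls, 0 no effect to 100 complete control; a dash means no result.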

pigweed = assay: Test B pre-/postemergence herbicide test; format: in vivo, Amaranthus retroflexus; conditions: for Pigweed plant response rating: postemergence, scale 0 (no effect) to 100 (complete control)
Outline: as §1

giant foxtail [8] = assay: Test B pre-/postemergence herbicide test; format: in vivo, Setaria faberi; conditions: for Foxtail, Giant plant response rating: postemergence, scale 0 (no effect) to 100 (complete control)
Outline: as §1

Surinam grass = assay: Test B pre-/postemergence herbicide test; format: in vivo, Urochloa decumbens; conditions: for Surinam Grass plant response rating: postemergence, scale 0 (no effect) to 100 (complete control)
Outline: as §1

rice [9] = assay: Test B pre-/postemergence herbicide test; format: in vivo, Oryza sativa; conditions: 0 = no effect, 100 = complete control, preemergence
Outline: as §1

velvetleaf [10] = assay: Test A pre-/postemergence herbicide test; format: in vivo, Abutilon theophrasti
Outline: as §2

wheat = assay: Test B postemergence herbicide test; format: in vivo, Triticum aestivum; design: key to Wheat plant response rating: 0 = no effect, 100 = complete control; conditions: postemergence, visual rating, scale 0 (no effect) to 100 (complete control)
Outline: as §3

corn = assay: Test B pre-/postemergence herbicide test; format: in vivo, Zea mays; conditions: for Corn plant response rating: postemergence, scale 0 (no effect) to 100 (complete control)
Outline: as §1

morningglory [11] = assay: Test A pre-/postemergence herbicide test; format: in vivo, Ipomoea spp.
Outline: as §2

barnyardgrass [12] = assay: Test B pre-/postemergence herbicide test; format: in vivo, Echinochloa crus-galli; conditions: for Barnyardgrass plant response rating: postemergence, scale 0 (no effect) to 100 (complete control)
Outline: as §5

morningglory [13] = assay: Test B pre-/postemergence herbicide test; format: in vivo, Ipomoea coccinea; conditions: for Morningglory plant response rating: postemergence, scale 0 (no effect) to 100 (complete control)
Outline: as §5

barnyardgrass [14] = assay: Test B flooded paddy test; format: in vivo, Echinochloa crus-galli; conditions: 1000 g ai/ha, visual rating, scale 0 to 100 (0 no effect, 100 complete control), 13 to 15 days
Outline: as §4

lambsquarters = assay: Test B pre-/postemergence herbicide test; format: in vivo, Chenopodium album; conditions: for Lambsquarters plant response rating: postemergence, scale 0 (no effect) to 100 (complete control)
Outline: as §1

[15] = 125 g ai/ha, 0 = no effect, 100 = complete control, preemergence
[16] = 500 g ai/ha, visual rating, 0 = no effect, 100 = complete control, preemergence
[17] = Postemergence, 500 g ai/ha, 0 to 100 scale, 0 no effect, 100 complete control
[18] = Postemergence, 2000 g ai/ha, 0 to 100 scale, 0 no effect, 100 complete control
[19] = Preemergence, 2000 g ai/ha, visual rating, 0 to 100 scale (0 no effect, 100 complete control)
[20] = preemergence, 500 g ai/ha, visual injury, 0 to 100 scale (0 no effect, 100 complete control)

CCc1nc(C(C)(C)C)sc1C(=O)Nc1cccc(C(=O)N(CC)CC)n1 [Compound 214]
80: Plant response rating, Lambsquarters (lambsquarters; [16])
40: Plant response rating, Foxtail, Giant (giant foxtail [2]; [18])
5: Crabgrass, Large plant response rating (large crabgrass [5]; [17]) | Velvetleaf plant response rating (velvetleaf [10]; [20]) | Morningglory plant response rating (morningglory [11]; [20])
0: Velvetleaf plant response rating (0 to 100 scale) (velvetleaf [1]; [15]) | Plant response rating, Velvetleaf (velvetleaf [1]; [16]) | Velvetleaf plant response rating (velvetleaf [1]; 125 g ai/ha, visual rating) | Oat, Wild plant response rating (wild oat; 125 g ai/ha) | Oat, Wild plant response rating (wild oat; 500 g ai/ha) | Crabgrass, Large plant response rating (0 to 100 scale) (large crabgrass [3]; [15]) | Crabgrass, Large plant response rating (large crabgrass [3]; 125 g ai/ha, visual rating) | Crabgrass, Large plant response rating (large crabgrass [3]; 500 g ai/ha, visual rating) | Blackgrass plant response rating (blackgrass; 125 g ai/ha) | Blackgrass plant response rating (blackgrass; 500 g ai/ha) | Cocklebur plant response rating (0 to 100 scale) (cocklebur; [15]) | Plant response rating, Cocklebur (cocklebur; [16]) | Cocklebur plant response rating (cocklebur; 125 g ai/ha, visual rating) | Cocklebur plant response rating (cocklebur; 500 g ai/ha, visual rating) | Barnyardgrass plant response rating (barnyardgrass [6]; [17]) | Barnyardgrass plant response rating (barnyardgrass [6]; [20]) | Rice plant response rating (rice [7]) | Pigweed plant response rating (0 to 100 scale) (pigweed; [15]) | Pigweed plant response rating (pigweed; 125 g ai/ha, visual rating) | Pigweed plant response rating (pigweed; 500 g ai/ha, visual rating) | Foxtail, Giant plant response rating (0 to 100 scale) (giant foxtail [8]; [15]) | Foxtail, Giant plant response rating (giant foxtail [8]; 125 g ai/ha, visual rating) | Surinam Grass plant response rating (0 to 100 scale) (Surinam grass; [15]) | Surinam Grass plant response rating (Surinam grass; 125 g ai/ha, visual rating) | Rice plant response rating (0 to 100 scale) (rice [9]; 125 g ai/ha) | Plant response rating, Rice (rice [9]; 500 g ai/ha, visual rating) | Wheat plant response rating (wheat; 125 g ai/ha) | Wheat plant response rating (wheat; 500 g ai/ha) | Corn plant response rating (0 to 100 scale) (corn; [15]) | Plant response rating, Corn (corn; [16]) | Corn plant response rating (corn; 125 g ai/ha, visual rating) | Morningglory plant response rating (morningglory [11]; [17]) | Barnyardgrass plant response rating (0 to 100 scale) (barnyardgrass [12]; [15]) | Barnyardgrass plant response rating (barnyardgrass [12]; 125 g ai/ha, visual rating) | Barnyardgrass plant response rating (barnyardgrass [12]; 500 g ai/ha, visual rating) | Morningglory plant response rating (0 to 100 scale) (morningglory [13]; [15]) | Plant response rating, Morningglory (morningglory [13]; [16]) | Morningglory plant response rating (morningglory [13]; 125 g ai/ha, visual rating) | Morningglory plant response rating (morningglory [13]; 500 g ai/ha, visual rating) | Barnyardgrass plant response rating (barnyardgrass [14]) | Lambsquarters plant response rating (0 to 100 scale) (lambsquarters; [15]) | Lambsquarters plant response rating (lambsquarters; 125 g ai/ha, visual rating) | Lambsquarters plant response rating (lambsquarters; 500 g ai/ha, visual rating)
20: Pigweed plant response rating (redroot pigweed; [17]) | Pigweed plant response rating (redroot pigweed; [20]) | Foxtail, Giant plant response rating (giant foxtail [8]; 500 g ai/ha, visual rating) | Plant response rating, Velvetleaf (velvetleaf [10]; [18]) | Velvetleaf plant response rating (velvetleaf [10]; [19]) | Corn plant response rating (corn; 500 g ai/ha, visual rating) | Plant response rating, Barnyardgrass (barnyardgrass [12]; [16])
50: Sedge, Umbrella plant response rating [4] | Plant response rating, Pigweed (redroot pigweed; [18])
55: Foxtail, Giant plant response rating (giant foxtail [2]; [19]) | Crabgrass, Large plant response rating (large crabgrass [5]; [20])
70: Plant response rating, Crabgrass, Large (large crabgrass [3]; [16])
100: Plant response rating, Pigweed (pigweed; [16])
60: Foxtail, Giant plant response rating (giant foxtail [2]; [20])
15: Foxtail, Giant plant response rating (giant foxtail [2]; [17]) | Plant response rating, Barnyardgrass (barnyardgrass [6]; [18]) | Velvetleaf plant response rating (velvetleaf [10]; [17])
65: Crabgrass, Large plant response rating (large crabgrass [5]; [19])
90: Plant response rating, Foxtail, Giant (giant foxtail [8]; [16])
10: Velvetleaf plant response rating (velvetleaf [1]; 500 g ai/ha, visual rating) | Plant response rating, Crabgrass, Large (large crabgrass [5]; [18]) | Surinam Grass plant response rating (Surinam grass; 500 g ai/ha, visual rating) | Plant response rating, Morningglory (morningglory [11]; [18])
30: Ducksalad plant response rating (ducksalad) | Barnyardgrass plant response rating (barnyardgrass [6]; [19]) | Plant response rating, Surinam Grass (Surinam grass; [16]) | Morningglory plant response rating (morningglory [11]; [19])
95: Pigweed plant response rating (redroot pigweed; [19])
